Assay results as given in article PMC8950244, “New Alpha-Amylase Inhibitory Metabolites from Pericarps of Garcinia mangostana” (Life, 2022).

Each compound was assayed against T1, porcine pancreatic α-amylase (Sus scrofa, UniProt P00690) (assay: fluorescence DQ starch hydrolysis assay (EnzChek Ultra Amylase kit)).
T1 construct: gene AMY2
T1 sequence (P00690 16-511): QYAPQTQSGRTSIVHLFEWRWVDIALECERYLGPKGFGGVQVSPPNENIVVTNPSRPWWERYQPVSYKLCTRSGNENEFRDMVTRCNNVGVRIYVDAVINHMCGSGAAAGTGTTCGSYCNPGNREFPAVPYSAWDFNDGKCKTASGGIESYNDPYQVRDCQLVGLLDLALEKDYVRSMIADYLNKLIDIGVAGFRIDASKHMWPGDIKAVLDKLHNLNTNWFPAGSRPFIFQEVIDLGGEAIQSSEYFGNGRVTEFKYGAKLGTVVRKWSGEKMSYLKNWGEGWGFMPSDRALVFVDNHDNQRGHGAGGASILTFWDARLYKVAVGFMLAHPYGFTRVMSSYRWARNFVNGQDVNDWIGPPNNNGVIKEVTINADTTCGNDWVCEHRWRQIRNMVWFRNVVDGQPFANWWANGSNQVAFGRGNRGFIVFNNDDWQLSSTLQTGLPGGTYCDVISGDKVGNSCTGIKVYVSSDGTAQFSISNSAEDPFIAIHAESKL
Assay type: biochemical
For `CC(C)=CCc1c(O)cc2oc3c(/C=C\C(C)(C)O)c(O)c(O)c(CC=C(C)C)c3c(=O)c2c1O` [compound 5, mangostanaxanthone VI], the IC50 was 16.1 µM. For `O=C(c1cc(O)cc(O)c1O)c1c(O)cc(O)cc1O` [compound 6, garcimangophenone A], the IC50 was 12.2 µM. With `O=C(c1cc(O)ccc1O)c1c(O)cc(O)cc1O[C@@H]1O[C@H](CO)[C@@H](O)[C@H](O)[C@H]1O` [compound 7, garcimangophenone B] the IC50 was 9.3 µM.
